Structures can show the parent of a compound that is named as a salt.
Key:
[1] = Determination of the solubility in 5% strength aqueous dextrose solution; assay type: physicochemical; conditions: saline or isotonic, thermodynamic from solid, room temperature
Protocol: The test substance is suspended in 5% strength aqueous dextrose solution. This suspension is shaken at room temperature for 24 h. After ultracentrifugation at 224 000 g for 30 min, the supernatant is diluted with DMSO and analysed by HPLC. A two-point calibration plot of the test compound in DMSO is used for quantification.
Agilent 1100 with DAD (G1315A), quat. Pump (G1311A), autosampler CTC HTS PAL, degasser (G1322A) and column thermostat (G1316A); column: Phenomenex Gemini C18, 5 μm, 50 mm×2 mm; temperature: 40° C.; eluent A: water/phosphoric acid pH 2, eluent B: acetonitrile; flow rate: 0.7 ml/min; gradient: 0-0.5 min 85% A, 15% B; ramp 0.5-3 min 10% A, 90% B; 3-3.5 min 10% A, 90% B; ramp 3.5-4 min 85% A, 15% B; 4-5 min 85% A, 15% B.
Agilent 1100 with DAD (G1315A), quat. pump (G1311A), autosampler CTC HTS PAL, degasser (G1322A) and column thermostat (G1316A); column: VDSoptilab Kromasil 100 C18, 3.5 μm, 60 mm×2.1 mm; temperature: 30° C.; eluent A: water+5 ml of perchloric acid/liter, eluent B: acetonitrile; flow rate: 0.75 ml/min; gradient: 0-0.5 min 98% A, 2% B; ramp 0.5-4.5 min 10% A, 90% B; 4.5-6 min 10% A, 90% B; ramp 6.5-6.7 min 98% A, 2% B; 6.7-7.5 min 98% A, 2% B.

[2] = test system: spontaneously hypertensive (SH rats); experiment: Blood pressure and heart rate measurements on awake rats; assay type: in vivo, rat; conditions: per oral administration of 3 mg/kg
Protocol: Awake rats which are spontaneously hypertensive (SH rats) and which carry an internal transmitter capable of continual measurement both of blood pressure and also heart rate (telemetric capture of hemodynamic parameters) are administered test substances orally in various doses. Subsequently, blood pressure and heart rate, and their changes, are recorded over 24 hours.

[3] = i.v. pharmacokinetics in Wistar rats; assay type: in vivo; conditions: after i.v. administration
Protocol: (§1) On the day before administration of the substance, a catheter for obtaining blood is implanted in the jugular vein of the experimental animals (male Wistar rats, body weight 200-250 g) under Isofluran® anesthesia.
(§2) On the day of the experiment, a defined dose of the test substance is administered as solution into the tail vein using a Hamilton® glass syringe (bolus administration, duration of administration <10 s). Blood samples (8-12 time points) are taken through the catheter sequentially over the course of 24 h after administration of the substance. Plasma is obtained by centrifuging the samples in heparinized tubes. Acetonitrile is added to a defined plasma volume per time point to precipitate proteins. After centrifugation, test substance and, where appropriate, known cleavage products of the test substance in the supernatant are determined quantitatively using a suitable LC/MS-MS method.
The measured plasma concentrations are used to calculate pharmacokinetic parameters of the test substance and of the active ingredient compound (A) liberated therefrom, such as AUC, Cmax, T1/2 (half-life) and CL (clearance).**

[4] = Oral pharmacokinetics in Wistar rats; assay type: in vivo; conditions: after oral administration
Protocol: as §1
as §2, with “stomach by gavage.” for “tail vein using a Hamilton® glass syringe (bolus administration, duration of administration <10 s).”
The measured plasma concentrations are used to calculate pharmacokinetic parameters of the test substance and of the active ingredient compound (A) liberated therefrom, such as AUC, Cmax, T1/2 (half-life).

[5] = Stability in buffer at various pH values; assay type: physicochemical
Protocol: 0.3 mg of the test substance is weighed into a 2 ml HPLC vial and 0.5 ml of acetonitrile or acetonitrile/DMSO (9:1) is added. The substance is dissolved by putting the sample vessel in an ultrasonic bath for about 10 seconds. Then 0.5 ml of the respective buffer solution is added, and the sample is again treated in the ultrasonic bath.
pH 2: 0.03 mol of citric acid, 0.061 mol of sodium chloride and 0.0082 mol of hydrochoric acid ad 1 liter of water;
pH 4: 1 liter of Millipore water is adjusted to pH 4.0 with 1 N hydrochloric acid;
pH 5: 0.096 mol of citric acid and 0.2 mol of sodium hydroxide ad 1 liter of water;
pH 6: 0.06 mol of citric acid and 0.16 mol of sodium hydroxide ad 1 liter of water;
pH 7.4: 90.0 g of sodium chloride, 13.61 g of potassium dihydrogen phosphate and 83.35 g of 1 N sodium hydroxide solution are made up to 1 liter with water; this solution is then further diluted 1:10 with Millipore water.
pH 8: 0.013 mol of borax and 0.021 mol of hydrochloric acid ad 1 liter of water.
5 μl portions of the test solution are analyzed by HPLC for their content of unchanged test substance, and of active substance (A) formed, every hour over a period of 24 hours at 37° C. The percentage areas of the appropriate peaks are used for quantification.
The ratios of the peak areas (F) at the respective time points in relation to the peak areas at the starting time are shown in Table 2 for representative exemplary embodiments: […]

| solubility at 24 h ([1]; 5% aqueous dextrose solution) | solubility thermodynamic at 24 h [1] | % test substance after 4 h [F(t = 4 h) × 100/F(t = 0 h)] ([5]; pH 4, 37° C.) | % test substance after 24 h [F(t = 24 h) × 100/F(t = 0 h)] ([5]; pH 4, 37° C.) | % test substance after 4 h [F(t = 4 h) × 100/F(t = 0 h)] ([5]; pH 5, 37° C.) | % test substance after 24 h [F(t = 24 h) × 100/F(t = 0 h)] ([5]; pH 5, 37° C.) | % test substance after 4 h [F(t = 4 h) × 100/F(t = 0 h)] ([5]; pH 6, 37° C.) | % test substance after 24 h [F(t = 24 h) × 100/F(t = 0 h)] ([5]; pH 6, 37° C.) | % test substance after 4 h [F(t = 4 h) × 100/F(t = 0 h)] ([5]; pH 7.4, 37° C.) | % test substance after 24 h [F(t = 24 h) × 100/F(t = 0 h)] ([5]; pH 7.4, 37° C.) | Compound | Heart rate reduction (maximum lowering of heart rate) [2] | detectability of the test substance in plasma [3] | detectability of the test substance in plasma [4] |
| --- | --- | --- | --- | --- | --- | --- | --- | --- | --- | --- | --- | --- | --- |
| < 1.2 µg/mL | – | – | – | – | – | – | – | – | – | N#Cc1c(N)nc(SCc2coc(-c3ccc(Cl)cc3)n2)c(C#N)c1-c1ccc(OC[C@H](O)CO)cc1 [Example 8A, 2-Amino-6-({[2-(4-chlorophenyl)-1,3-oxazol-4-yl]methyl}sulfanyl)-4-(4-{[(2R)-2,3-dihydroxypropyl]oxy}phenyl)pyridine-3,5-dicarbonitrile] | 10% | – | – |
| – | 620 µg/mL | 100% | 100% | 100% | 97% | 78% | 28% | 29% | 0% | C[C@H](N)C(=O)N[C@@H](C)C(=O)OC[C@H](COc1ccc(-c2c(C#N)c(N)nc(SCc3coc(-c4ccc(Cl)cc4)n3)c2C#N)cc1)OC(=O)[C@H](C)NC(=O)[C@H](C)N [Example 33, (2S)-3-{4-[2-Amino-6-({[2-(4-chlorophenyl)-1,3-oxazol-4-yl]methyl}sulfanyl)-3,5-dicyanopyridin-4-yl]phenoxy}propane-1,2-diyl(2S,2′S)-bis(2-{[(2S)-2-aminopropanoyl]amino}propanoate)dihydrochloride] | 10% | no longer detectable in plasma even at the first measurement point | no longer detectable in plasma even at the first measurement point |
| – | – | 100% | 100% | 100% | 100% | 99% | 98% | 96% | 81% | C[C@H](NC(=O)CCN)C(=O)OC[C@H](COc1ccc(-c2c(C#N)c(N)nc(SCc3coc(-c4ccc(Cl)cc4)n3)c2C#N)cc1)OC(=O)[C@H](C)NC(=O)CCN [Example 32, (2S)-3-{4-[2-Amino-6-({[2-(4-chlorophenyl)-1,3-oxazol-4-yl]methyl}sulfanyl)-3,5-dicyanopyridin-4-yl]phenoxy}propane-1,2-diyl (2S,2′S)-bis{2-[(3-aminopropanoyl)amino]propanoate}dihydrochloride] | 10% | no longer detectable in plasma even at the first measurement point | – |
